Results as given in PubChem BioAssay (NCI).
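Assay format: 96-well plates, 48-hour exposure. GI50 marks 50% less growth. TGI marks complete inhibition of growth.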

Columns and labels:
Assay in all cases: DTP human tumour cell line panel, 48 h
OVCAR-3 ovarian = test system: OVCAR-3 ovarian
786-0 renal = test system: 786-0 renal
ACHN renal = test system: ACHN renal
NCI/ADR-RES ovarian = test system: NCI/ADR-RES ovarian
K-562 leukemia = test system: K-562 leukemia
PC-3 prostate = test system: PC-3 prostate
T-47D breast = test system: T-47D breast
IGROV1 ovarian = test system: IGROV1 ovarian
DU-145 prostate = test system: DU-145 prostate
LOX IMVI melanoma = test system: LOX IMVI melanoma
SF-295 CNS = test system: SF-295 CNS
RPMI-8226 leukemia = test system: RPMI-8226 leukemia
SF-539 CNS = test system: SF-539 CNS
SW-620 colon = test system: SW-620 colon
M14 melanoma = test system: M14 melanoma
A549 NSCLC = test system: A549 NSCLC
NCI-H460 lung = test system: NCI-H460 lung
SK-MEL-28 melanoma = test system: SK-MEL-28 melanoma
MDA-MB-231 breast = test system: MDA-MB-231 breast
MDA-MB-435 = test system: MDA-MB-435
HCT-116 colon = test system: HCT-116 colon
HS 578T breast = test system: HS 578T breast
MALME-3M melanoma = test system: MALME-3M melanoma
SR leukemia = test system: SR leukemia
OVCAR-8 ovarian = test system: OVCAR-8 ovarian
UACC-257 melanoma = test system: UACC-257 melanoma
BT-549 breast = test system: BT-549 breast
MCF7 breast = test system: MCF7 breast
SF-268 CNS = test system: SF-268 CNS
SNB-75 CNS = test system: SNB-75 CNS
U251 CNS = test system: U251 CNS
EKVX NSCLC = test system: EKVX NSCLC
SK-MEL-5 melanoma = test system: SK-MEL-5 melanoma
MOLT-4 leukemia = test system: MOLT-4 leukemia
HT29 colon = test system: HT29 colon
CCRF-CEM leukemia = test system: CCRF-CEM leukemia
RXF 393 renal = test system: RXF 393 renal
COLO 205 colon = test system: COLO 205 colon
A498 renal = test system: A498 renal
SNB-19 CNS = test system: SNB-19 CNS
HOP-62 NSCLC = test system: HOP-62 NSCLC
CAKI-1 renal = test system: CAKI-1 renal
UO-31 renal = test system: UO-31 renal
HCC-2998 colon = test system: HCC-2998 colon
NCI-H522 lung = test system: NCI-H522 lung
SN12C renal = test system: SN12C renal
UACC-62 melanoma = test system: UACC-62 melanoma
OVCAR-4 ovarian = test system: OVCAR-4 ovarian
HL-60(TB) leukemia = test system: HL-60(TB) leukemia
SK-MEL-2 melanoma = test system: SK-MEL-2 melanoma
HOP-92 NSCLC = test system: HOP-92 NSCLC
TK-10 renal = test system: TK-10 renal
KM12 colon = test system: KM12 colon
SK-OV-3 ovarian = test system: SK-OV-3 ovarian
HCT-15 colon = test system: HCT-15 colon
OVCAR-5 ovarian = test system: OVCAR-5 ovarian

Work on `CN1CCN(c2nc(-c3csc(-c4ccccc4)n3)cc3ccccc23)CC1` yielded a GI50 (OVCAR-3 ovarian) of 3.04 µM, a TGI (OVCAR-3 ovarian) of 11.8 µM and a GI50 (786-0 renal) of 1.68 µM. The TGI (786-0 renal) was 3.34 µM, the GI50 (ACHN renal) was 2.1 µM and the TGI (ACHN renal) was 4.77 µM. The GI50 (NCI/ADR-RES ovarian) was 1.93 µM, the TGI (NCI/ADR-RES ovarian) was 4.25 µM and the GI50 (K-562 leukemia) was 1.84 µM. It also gave a TGI (K-562 leukemia) of 3.66 µM, a GI50 (PC-3 prostate) of 2.25 µM and a TGI (PC-3 prostate) of 6.25 µM. The GI50 (T-47D breast) was 2.07 µM, the TGI (T-47D breast) was 5.53 µM and the GI50 (IGROV1 ovarian) was 1.88 µM. For the same compound, the TGI (IGROV1 ovarian) was 4.55 µM, the GI50 (DU-145 prostate) was 2.7 µM and the TGI (DU-145 prostate) was 7.98 µM. The GI50 (LOX IMVI melanoma) was 1.66 µM, the TGI (LOX IMVI melanoma) was 3.09 µM and the GI50 (SF-295 CNS) was 4.97 µM. For the same compound, the TGI (SF-295 CNS) was 17.6 µM, the GI50 (RPMI-8226 leukemia) was 2.09 µM and the TGI (RPMI-8226 leukemia) was 5.37 µM. For the same compound, the GI50 (SF-539 CNS) was 1.79 µM, the TGI (SF-539 CNS) was 3.45 µM and the GI50 (SW-620 colon) was 1.63 µM. For the same compound, the TGI (SW-620 colon) was 3.12 µM, the GI50 (M14 melanoma) was 1.8 µM and the TGI (M14 melanoma) was 3.55 µM. It also gave a GI50 (A549 NSCLC) of 10.3 µM, a TGI (A549 NSCLC) of 22.7 µM and a GI50 (NCI-H460 lung) of 1.73 µM. For the same compound, the TGI (NCI-H460 lung) was 3.27 µM, the GI50 (SK-MEL-28 melanoma) was 1.74 µM and the TGI (SK-MEL-28 melanoma) was 3.28 µM. The GI50 (MDA-MB-231 breast) was 1.94 µM, the TGI (MDA-MB-231 breast) was 4.38 µM and the GI50 (MDA-MB-435) was 1.78 µM. For the same compound, the TGI (MDA-MB-435) was 3.47 µM, the GI50 (HCT-116 colon) was 1.61 µM and the TGI (HCT-116 colon) was 2.98 µM. For the same compound, the GI50 (HS 578T breast) was 4.57 µM, the TGI (HS 578T breast) was 27.1 µM and the GI50 (MALME-3M melanoma) was 2 µM. The TGI (MALME-3M melanoma) was 4.23 µM, the GI50 (SR leukemia) was 1.58 µM and the TGI (SR leukemia) was 3.97 µM. It also gave a GI50 (OVCAR-8 ovarian) of 1.79 µM, a TGI (OVCAR-8 ovarian) of 3.79 µM and a GI50 (UACC-257 melanoma) of 1.89 µM. For the same compound, the TGI (UACC-257 melanoma) was 4.19 µM, the GI50 (BT-549 breast) was 13 µM and the TGI (BT-549 breast) was 36.4 µM. The GI50 (MCF7 breast) was 1.65 µM, the TGI (MCF7 breast) was 3.46 µM and the GI50 (SF-268 CNS) was 4.67 µM. For the same compound, the TGI (SF-268 CNS) was 19.4 µM, the GI50 (SNB-75 CNS) was 5.97 µM and the TGI (SNB-75 CNS) was 20.8 µM. The GI50 (U251 CNS) was 2.34 µM, the TGI (U251 CNS) was 6.22 µM and the GI50 (EKVX NSCLC) was 3.36 µM. For the same compound, the TGI (EKVX NSCLC) was 13 µM, the GI50 (SK-MEL-5 melanoma) was 3.26 µM and the TGI (SK-MEL-5 melanoma) was 12.1 µM. The GI50 (MOLT-4 leukemia) was 2.02 µM, the TGI (MOLT-4 leukemia) was 4.04 µM and the GI50 (HT29 colon) was 1.75 µM. It also gave a TGI (HT29 colon) of 3.28 µM, a GI50 (CCRF-CEM leukemia) of 1.96 µM and a TGI (CCRF-CEM leukemia) of 4.34 µM. The GI50 (RXF 393 renal) was 1.96 µM, the TGI (RXF 393 renal) was 5.22 µM and the GI50 (COLO 205 colon) was 1.68 µM. For the same compound, the TGI (COLO 205 colon) was 3.19 µM, the GI50 (A498 renal) was 14.8 µM and the TGI (A498 renal) was 28.9 µM. It also gave a GI50 (SNB-19 CNS) of 5.52 µM, a TGI (SNB-19 CNS) of 21.3 µM and a GI50 (HOP-62 NSCLC) of 2.58 µM. It also gave a TGI (HOP-62 NSCLC) of 10.6 µM, a GI50 (CAKI-1 renal) of 1.61 µM and a TGI (CAKI-1 renal) of 3.52 µM. For the same compound, the GI50 (UO-31 renal) was 2.19 µM, the TGI (UO-31 renal) was 8.18 µM and the GI50 (HCC-2998 colon) was 1.66 µM. The TGI (HCC-2998 colon) was 3.08 µM, the GI50 (NCI-H522 lung) was 1.93 µM and the TGI (NCI-H522 lung) was 4.44 µM. The GI50 (SN12C renal) was 3.45 µM, the TGI (SN12C renal) was 12.1 µM and the GI50 (UACC-62 melanoma) was 1.93 µM. It also gave a TGI (UACC-62 melanoma) of 3.88 µM, a GI50 (OVCAR-4 ovarian) of 4.1 µM and a TGI (OVCAR-4 ovarian) of 19.8 µM. The GI50 (HL-60(TB) leukemia) was 1.84 µM, the TGI (HL-60(TB) leukemia) was 3.91 µM and the GI50 (SK-MEL-2 melanoma) was 14.1 µM. The TGI (SK-MEL-2 melanoma) was 29.2 µM, the GI50 (HOP-92 NSCLC) was 1.88 µM and the TGI (HOP-92 NSCLC) was 7.63 µM. For the same compound, the GI50 (TK-10 renal) was 14.6 µM, the TGI (TK-10 renal) was 28.9 µM and the GI50 (KM12 colon) was 1.95 µM. For the same compound, the TGI (KM12 colon) was 3.99 µM, the GI50 (SK-OV-3 ovarian) was 12.3 µM and the TGI (SK-OV-3 ovarian) was 28.2 µM. For the same compound, the GI50 (HCT-15 colon) was 1.85 µM, the TGI (HCT-15 colon) was 3.66 µM and the GI50 (OVCAR-5 ovarian) was 3.23 µM. The TGI (OVCAR-5 ovarian) was 12.8 µM.
